Measurements: publication PMC3880124 (MedChemComm, 2013)
Read-outs that look alike come from different tables or passages of the source.

Assays:
PASMC = settings: 24 h
SK1 [1] = biological target: T1, SK1 (Homo sapiens, UniProt Q9NYA1); assay: SK1 expression in PASMC; settings: 10 μM, 24 h, western blot
SK1 [2] = biological target: T1, SK1; assay: Inhibition of SK1 activity; settings: compound at 50 μM; Sph 3 μM
SK2 [3] = biological target: T2, SK2 (Homo sapiens, UniProt Q9NRA0); assay: Test of compounds as SK2 substrates; format: biochemical; settings: compound at 50 μM
T2 sequence (Q9NRA0 1-654): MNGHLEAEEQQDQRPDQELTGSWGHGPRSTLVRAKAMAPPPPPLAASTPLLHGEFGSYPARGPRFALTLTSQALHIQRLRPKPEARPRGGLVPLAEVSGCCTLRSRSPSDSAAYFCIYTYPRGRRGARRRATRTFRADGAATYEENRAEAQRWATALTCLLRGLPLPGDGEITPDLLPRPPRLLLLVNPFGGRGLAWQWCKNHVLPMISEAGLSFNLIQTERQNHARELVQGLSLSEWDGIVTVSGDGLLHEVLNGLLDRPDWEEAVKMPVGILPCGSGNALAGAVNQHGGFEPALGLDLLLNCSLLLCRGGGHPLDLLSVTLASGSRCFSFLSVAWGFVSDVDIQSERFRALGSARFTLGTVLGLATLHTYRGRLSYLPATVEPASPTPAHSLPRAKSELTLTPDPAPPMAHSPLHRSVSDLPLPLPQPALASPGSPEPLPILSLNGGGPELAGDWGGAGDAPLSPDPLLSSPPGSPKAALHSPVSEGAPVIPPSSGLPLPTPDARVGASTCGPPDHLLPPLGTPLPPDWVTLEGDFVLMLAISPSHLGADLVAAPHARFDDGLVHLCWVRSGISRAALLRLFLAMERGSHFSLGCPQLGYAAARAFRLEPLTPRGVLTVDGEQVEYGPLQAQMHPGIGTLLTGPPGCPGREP

SK1 [4] = biological target: T1, SK1; assay: Test of compounds as SK1 substrates; format: biochemical; settings: compound at 50 μM
SK2 [5] = biological target: T2, SK2; assay: Inhibition of SK2 activity; format: biochemical; settings: compound at 50 μM; Sph 10 μM

T1 sequence (Q9NYA1 whole entry): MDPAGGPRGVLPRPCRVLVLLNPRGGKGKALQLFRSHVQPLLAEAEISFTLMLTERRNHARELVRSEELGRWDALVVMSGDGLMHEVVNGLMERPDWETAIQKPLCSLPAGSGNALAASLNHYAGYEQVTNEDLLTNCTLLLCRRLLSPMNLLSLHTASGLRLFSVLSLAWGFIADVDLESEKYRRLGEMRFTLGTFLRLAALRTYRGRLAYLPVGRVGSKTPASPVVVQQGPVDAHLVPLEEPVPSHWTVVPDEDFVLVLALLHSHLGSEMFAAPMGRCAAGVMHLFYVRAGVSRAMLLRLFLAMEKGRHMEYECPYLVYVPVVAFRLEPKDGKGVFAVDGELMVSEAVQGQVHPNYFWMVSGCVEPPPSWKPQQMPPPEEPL

Row | Compound | SK1 inhibition in words (SK1 [2]) | substrate of SK2 (SK2 [3]) | substrate of SK1 (SK1 [4]) | SK2 inhibition in words (SK2 [5]) | other results
1 | CCCCCCCCCCCCCCC[C@@H](O)[C@H](C)N [55-21, (2S,3R)-2-amino-3-octadecanol] | more effective SK1 inhibitors | – | – | – | effect on DNA synthesis (PASMC; 100 nM and 1 μM): significantly inhibited DNA synthesis; effect on SK1 expression (SK1 [1]): reduced the expression of SK1
2 | CCCCCCCCCCCCC/C=C\[C@@H](O)[C@@H](N)CO [67-302] | – | efficiently phosphorylated by SK2 | weak substrates of SK1 | – | –
3 | CCCCCCCCCCCCC/C=C/[C@@H](O)[C@H](CO)NC(=S)Nc1ccc(C(F)(F)F)cc1 [67-330] | weak inhibitor of both SK isoforms | – | – | weak inhibitor of both SK isoforms | –
4 | CCCCCCCCCCCCCC[C@H]1OC[C@H](NC(=S)Nc2c(F)c(F)c(F)c(F)c2F)[C@@H]1O [67-341] | – | – | weak substrates of SK1 | – | –
5 | CCCCCCCCCCCCCCOC[C@@H](O)[C@H](C)N(C)C [77-7] | effective SK1 inhibitor | – | – | – | –
6 | CCCCCCCCCCCCCCC[C@@H](O)[C@H](C)[N+](C)(C)C.Cc1ccc(S(=O)(=O)[O-])cc1 [77-13] | nonselective SK inhibitor | – | weak substrates of SK1 | nonselective SK inhibitor | –
7 | CCCCCCCCCCCCCCC[C@@H](O)[C@H](CO)NC(=S)Nc1cccc(F)c1 [F-01] | – | very weak substrates of SK2 | weak substrates of SK1 | less effective | –
8 | CCCCCCCCCCCCCCC[C@@H](O)[C@H](CO)NC(=S)Nc1cccc(C(F)(F)F)c1 [F-02] | – | very weak substrates of SK2 | – | – | effect on SK1 expression (SK1 [1]): without effect on SK1 expression
9 | Cc1cc(CS(=O)(=O)c2ccccc2)cc(OCc2ccc(CN3CCC[C@@H]3CO)cc2)c1 [PF-543] | – | – | – | – | effect on DNA synthesis (PASMC; 10 nM and 100 nM): ineffective at reducing DNA synthesis
10 | CCCCCCCCCCCCc1ccc(C(=O)N2CCC[C@H]2C(=N)N)cc1.Cl [VPC96091, reference compound] | – | – | – | abolished SK1 and SK2 activity | effect on DNA synthesis (PASMC; 300 nM): ineffective at reducing DNA synthesis
